Test system: T1, ASP-J1-4 L-ASNase
T1 construct: gene ansZ; native enzyme from culture broth, acetone precipitation, dialysis, DEAE-Sepharose; 36 kDa (37 kDa in abstract) by SDS-PAGE; no L-glutaminase activity
Test: ammonia release, Nessler's reagent, A436; Lineweaver-Burk plot
Format: biochemical, Bacillus xiamenensis
Conditions: 0.02-2.42 mM L-ASN; regular assay conditions (pH and temperature not restated for kinetics)

Km: 150 µM
Compound: NC(=O)C[C@H](N)C(=O)O [L-ASN]

— paper PMC12113540, “Isolation and Characterization of L-Asparaginase-Producing Bacteria from the Arabian–Persian Gulf Region: First Report on Bacillus xiamenensis ASP-J1-4 as a Producer and Its Potential Application” (Marine Drugs, 2025)
